The pIC50 is the negative decadic logarithm of the IC50, by convention in mol/L.

Molecules are shown by their SMILES. pIC50: −log10 of the molar value.

Data on 1 compound can be found in US20090076009A1, “THIAZOLE DERIVATIVES AND THEIR USE AS ANTI-TUMOUR AGENTS” (priority 2006, published 2009).

One experiment addresses T1, p110α Type Ia human PI3K (Homo sapiens, UniProt P42336).
T1 construct: full length DNA of each of the p110α, p110β and p110δ Type Ia human PI3K p110 isoforms; 6-His; made in house; Grp1 PH domain in E. coli
The experiment is described as follows: In Vitro PI3K Enzyme Assay (AlphaScreen). Format: biochemical. The following applies: Test (a); read-out: IC50 versus p110α Type Ia human PI3K. From the text:
(a) In Vitro PI3K Enzyme Assay
The assay used AlphaScreen technology (Gray et al., Analytical Biochemistry, 2003, 313: 234-245) to determine the ability of test compounds to inhibit phosphorylation by recombinant Type I PI3K enzymes of the lipid PI(4,5)P2.
DNA fragments encoding human PI3K catalytic and regulatory subunits were isolated from cDNA libraries using standard molecular biology and PCR cloning techniques. The selected DNA fragments were used to generate baculovirus expression vectors. In particular, full length DNA of each of the p110α, p110β and p110δ Type Ia human PI3K p110 isoforms (EMBL Accession Nos. HSU79143, S67334, Y10055 for p110α, p110β and p110δ respectively) were sub-cloned into a pDEST10 vector (Invitrogen Limited, Fountain Drive, Paisley, UK). The vector is a Gateway-adapted version of Fastbac1 containing a 6-His epitope tag. […]
Each reaction was stopped by the addition of 10 μl of a mixture of EDTA (100 mM), bovine serum albumin (BSA, 0.045%) and Tris-HCl pH7.6 buffer (40 mM). […] The resultant signals arising from laser light excitation at 680 nm were read using a Packard AlphaQuest instrument. […]
Background: Alpha assays give light when donor and acceptor beads are brought close together.

The test system of experiment [1] is phosphorylation of Serine 473 in Akt in MDA-MB-468 human breast adenocarcinoma cell line. Kind of experiment: In Vitro Phospho-Ser473 Akt Assay. The experiment is classed as cell-based. The following applies: Test (c), MDA-MB-468 cells, read-out: IC50, inhibition of phosphorylation of Serine 473 in Akt. The procedure:
(c) In Vitro Phospho-Ser473 Akt Assay
This assay determines the ability of test compounds to inhibit phosphorylation of Serine 473 in Akt as assessed using Acumen Explorer technology (TTP LabTech Limited, Royston, Herts, SG8 6EE, UK), a plate reader that can be used to rapidly quantitate features of images generated by laser-scanning.
A MDA-MB-468 human breast adenocarcinoma cell line (LGC Promochem, Teddington, Middlesex, UK, Catalogue No. HTB-132) was routinely maintained at 37° C. with 5% CO2 up to a confluency of 70-90% in DMEM containing 10% FCS and 1% L-glutamine.
For the assay, the cells were detached from the culture flask using ‘Accutase’ (Innovative Cell Technologies Inc., San Diego, Calif., USA; Catalogue No. AT104) using standard tissue culture methods and resuspended in media to give 5.5×10^4 cells per ml. Aliquots (90 μl) were seeded into each of the inner 60 wells of a black ‘Costar’ 96-well plate (Corning Inc., NY, USA; Catalogue No. 3904) to give a density of 5000 cells per well. Aliquots (90 μl) of culture media were placed in the outer wells to prevent edge effects. [An alternative cell handling procedure involved the maintenance of the cells in a ‘SelecT’ robotic device (The Automation Partnership, Royston, Herts SG8 5WY, UK). Cells were resuspended in media to give 5×10^4 cells per ml. Aliquots (100 μl) were seeded into the wells of a black ‘Costar’ 96-well plate.] […]

In experiment [2] the target is mTOR PI kinase-related kinase (Homo sapiens, UniProt P42345). Kind of experiment: In Vitro mTOR PI kinase-related Kinase Assay (AlphaScreen). Format: biochemical. The following applies: Test (b); read-out: IC50 versus mTOR PI kinase-related kinase. The procedure:
(b) In Vitro mTOR PI kinase-related Kinase Assay The assay used AlphaScreen technology (Gray et al., Analytical Biochemistry, 2003, 313: 234-245) to determine the ability of test compounds to inhibit phosphorylation by recombinant mTOR. […]
Each reaction was stopped by the addition of 10 μl of a mixture of EDTA (50 mM), bovine serum albumin (BSA; 0.5 mg/ml) and Tris-HCl pH7.4 buffer (50 mM) containing p70 S6 Kinase (T389) IA5 Monoclonal Antibody (Cell Signalling Technology, Catalogue No. 9206B) and AlphaScreen Streptavidin donor and Protein A acceptor beads (200 ng; Perkin Elmer, Catalogue No. 6760002B and 6760137R respectively) were added and the assay plates were left for about 20 hours at room temperature in the dark. The resultant signals arising from laser light excitation at 680 nm were read using a Packard Envision instrument.
Phosphorylated biotinylated peptide is formed in situ as a result of mTOR mediated phosphorylation. […] Upon laser light excitation at 680 nm, the donor bead: acceptor bead complex produces a signal that can be measured. […] In the presence of an mTOR kinase inhibitor, signal strength is reduced. mTOR enzyme inhibition for a given test compound was expressed as an IC50 value.

Chain of mTOR PI kinase-related kinase (P42345 1362-2549): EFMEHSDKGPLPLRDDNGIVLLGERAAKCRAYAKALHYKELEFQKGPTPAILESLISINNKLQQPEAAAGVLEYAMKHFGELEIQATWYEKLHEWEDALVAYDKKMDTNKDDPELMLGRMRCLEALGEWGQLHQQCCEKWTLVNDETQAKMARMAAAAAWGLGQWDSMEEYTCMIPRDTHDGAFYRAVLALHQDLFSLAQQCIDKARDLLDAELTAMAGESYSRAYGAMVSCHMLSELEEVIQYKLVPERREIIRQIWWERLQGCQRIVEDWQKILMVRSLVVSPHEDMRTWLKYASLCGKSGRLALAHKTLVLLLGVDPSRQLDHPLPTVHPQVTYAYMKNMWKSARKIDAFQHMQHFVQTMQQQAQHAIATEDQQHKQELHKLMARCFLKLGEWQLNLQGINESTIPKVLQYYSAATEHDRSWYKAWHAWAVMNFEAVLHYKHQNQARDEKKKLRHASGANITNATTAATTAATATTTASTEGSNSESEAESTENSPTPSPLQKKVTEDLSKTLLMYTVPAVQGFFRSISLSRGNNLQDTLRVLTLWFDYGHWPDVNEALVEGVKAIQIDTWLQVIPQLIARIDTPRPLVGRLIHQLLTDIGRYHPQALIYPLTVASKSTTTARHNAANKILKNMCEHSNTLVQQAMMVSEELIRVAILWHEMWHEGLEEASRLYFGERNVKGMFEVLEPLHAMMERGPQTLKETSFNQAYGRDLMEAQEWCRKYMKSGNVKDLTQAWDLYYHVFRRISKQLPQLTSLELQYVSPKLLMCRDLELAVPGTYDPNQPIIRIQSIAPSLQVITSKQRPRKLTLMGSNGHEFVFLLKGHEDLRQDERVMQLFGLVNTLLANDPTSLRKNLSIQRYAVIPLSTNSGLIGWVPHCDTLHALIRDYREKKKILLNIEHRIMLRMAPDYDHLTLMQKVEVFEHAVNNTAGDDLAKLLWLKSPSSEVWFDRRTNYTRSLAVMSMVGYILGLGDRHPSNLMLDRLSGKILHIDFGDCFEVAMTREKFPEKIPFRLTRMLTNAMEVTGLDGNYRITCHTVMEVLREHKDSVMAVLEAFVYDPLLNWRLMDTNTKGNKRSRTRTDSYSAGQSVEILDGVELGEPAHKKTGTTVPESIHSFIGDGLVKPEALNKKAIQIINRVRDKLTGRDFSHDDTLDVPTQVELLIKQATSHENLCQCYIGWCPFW
T1 sequence (P27986 whole entry, the tested form may be a part, canonical isoform): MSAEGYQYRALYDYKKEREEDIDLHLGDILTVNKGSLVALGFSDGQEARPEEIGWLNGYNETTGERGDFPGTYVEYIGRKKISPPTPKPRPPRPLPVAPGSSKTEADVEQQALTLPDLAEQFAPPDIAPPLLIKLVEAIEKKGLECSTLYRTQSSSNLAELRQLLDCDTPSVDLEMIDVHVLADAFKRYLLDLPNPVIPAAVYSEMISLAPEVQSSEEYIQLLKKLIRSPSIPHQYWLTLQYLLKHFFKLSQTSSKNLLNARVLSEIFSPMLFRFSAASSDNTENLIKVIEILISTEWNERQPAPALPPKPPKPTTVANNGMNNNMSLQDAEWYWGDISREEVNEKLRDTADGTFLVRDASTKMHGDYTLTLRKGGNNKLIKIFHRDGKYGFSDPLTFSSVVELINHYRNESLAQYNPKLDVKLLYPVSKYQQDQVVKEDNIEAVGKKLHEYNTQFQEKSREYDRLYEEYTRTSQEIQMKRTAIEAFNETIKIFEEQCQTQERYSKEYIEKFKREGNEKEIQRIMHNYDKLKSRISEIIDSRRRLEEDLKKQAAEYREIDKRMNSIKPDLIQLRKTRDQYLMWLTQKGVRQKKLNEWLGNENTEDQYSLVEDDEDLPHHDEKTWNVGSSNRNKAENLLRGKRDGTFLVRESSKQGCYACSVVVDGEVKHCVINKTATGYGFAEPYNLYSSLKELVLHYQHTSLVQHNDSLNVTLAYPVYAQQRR
T1 sequence (P42336 whole entry, the tested form may be a part, canonical isoform): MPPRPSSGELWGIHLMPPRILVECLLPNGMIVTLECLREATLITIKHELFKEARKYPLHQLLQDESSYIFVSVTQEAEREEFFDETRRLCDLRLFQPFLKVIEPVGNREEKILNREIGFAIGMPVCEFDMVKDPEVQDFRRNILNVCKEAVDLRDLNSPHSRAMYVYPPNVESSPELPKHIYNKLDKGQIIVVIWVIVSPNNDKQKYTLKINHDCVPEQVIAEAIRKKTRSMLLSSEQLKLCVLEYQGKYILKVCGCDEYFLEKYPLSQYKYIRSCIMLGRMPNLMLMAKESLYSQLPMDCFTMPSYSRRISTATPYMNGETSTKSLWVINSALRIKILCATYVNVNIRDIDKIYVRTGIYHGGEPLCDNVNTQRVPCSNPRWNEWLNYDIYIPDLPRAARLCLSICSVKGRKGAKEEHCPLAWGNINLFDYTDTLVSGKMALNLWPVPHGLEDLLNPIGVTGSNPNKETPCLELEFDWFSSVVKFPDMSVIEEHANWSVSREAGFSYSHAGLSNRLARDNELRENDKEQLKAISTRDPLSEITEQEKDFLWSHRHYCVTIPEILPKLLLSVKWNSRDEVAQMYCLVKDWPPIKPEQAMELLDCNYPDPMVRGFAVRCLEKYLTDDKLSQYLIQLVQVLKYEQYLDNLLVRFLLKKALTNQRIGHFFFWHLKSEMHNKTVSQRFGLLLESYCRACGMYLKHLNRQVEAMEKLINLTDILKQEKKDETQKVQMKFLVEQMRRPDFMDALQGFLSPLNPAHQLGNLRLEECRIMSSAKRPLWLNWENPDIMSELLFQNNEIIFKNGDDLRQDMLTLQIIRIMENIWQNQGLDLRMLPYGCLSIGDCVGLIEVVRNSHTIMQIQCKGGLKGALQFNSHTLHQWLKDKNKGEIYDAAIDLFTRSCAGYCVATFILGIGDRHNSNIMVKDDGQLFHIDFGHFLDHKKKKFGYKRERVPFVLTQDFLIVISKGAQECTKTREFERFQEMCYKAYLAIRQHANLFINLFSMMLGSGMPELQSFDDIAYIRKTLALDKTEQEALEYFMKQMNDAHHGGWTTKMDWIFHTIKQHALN

As to `CC(=O)Nc1ncc(-c2cc(NS(=O)(=O)c3ccccc3)cnc2C)s1` [Example 1, N-[5-(5-benzenesulphonamido-2-methylpyridin-3-yl)thiazol-2-yl]acetamide], the negative logarithm of the IC50 (pIC50) is ~5.30 at p110α Type Ia human PI3K, ~5.00 in experiment [1] and ~6.30 in experiment [2].
